Measured values as given in EP4480493A1, “A RECOMBINANT HUMAN ALPHA-1 ANTITRYPSIN GLYCOPROTEIN FOR TREATING NON-VIRAL INFLAMMATORY DISEASES OF THE LUNG” (AATEC Medical GmbH, priority 2023, dated 2024).
Structures can show the parent of a compound that is named as a salt.

Tests used:
[1] = target: T1, human neutrophil elastase (Homo sapiens, UniProt P08246); test: Neutrophil Elastase activity assay (fluorogenic AMC substrate); assay type: biochemical; set-up: key to Neutrophil Elastase IC50 / Neutrophil Elastase IC90: - = inactive
T1 construct: purchased Merck Millipore 324681
T1 sequence (P08246 30-247 limits assumed): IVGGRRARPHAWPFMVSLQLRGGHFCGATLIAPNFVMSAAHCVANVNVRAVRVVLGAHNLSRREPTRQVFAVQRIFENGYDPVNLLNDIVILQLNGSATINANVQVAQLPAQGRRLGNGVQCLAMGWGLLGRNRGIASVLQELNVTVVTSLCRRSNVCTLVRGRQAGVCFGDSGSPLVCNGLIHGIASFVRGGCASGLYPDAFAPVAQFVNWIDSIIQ

[2] = target: recombinant human TMPRSS2 (Homo sapiens, UniProt O15393); test: TMPRSS2 activity assay (fluorogenic AMC substrate); conditions: read-out: TMPRSS2 IC90
[3] = target: recombinant human TMPRSS2 enzyme (CusaBio #YP023924HU) (human) (UniProt O15393); test: cell-based or functional assay
Sequence of recombinant human TMPRSS2 enzyme (CusaBio #YP023924HU) (human) (O15393 106-492 limits assumed): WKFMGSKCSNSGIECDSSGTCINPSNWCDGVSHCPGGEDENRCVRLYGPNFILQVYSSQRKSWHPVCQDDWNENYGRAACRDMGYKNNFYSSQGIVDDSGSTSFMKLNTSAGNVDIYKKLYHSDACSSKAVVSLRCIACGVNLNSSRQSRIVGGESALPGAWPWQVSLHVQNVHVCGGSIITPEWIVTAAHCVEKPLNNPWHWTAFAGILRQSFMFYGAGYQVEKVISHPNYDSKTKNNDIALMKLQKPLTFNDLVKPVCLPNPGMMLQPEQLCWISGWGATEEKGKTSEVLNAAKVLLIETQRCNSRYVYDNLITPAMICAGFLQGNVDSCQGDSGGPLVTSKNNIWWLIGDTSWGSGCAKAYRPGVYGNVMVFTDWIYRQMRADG

Sequence of recombinant human TMPRSS2 (O15393 106-492 limits assumed): as above

Row | TMPRSS2 IC50 (TMPRSS2 activity assay, fluorogenic BOC-Gln-Ala-Arg-AMC substrate) [3] | Molecule | Neutrophil Elastase IC90 ([1]; non-linear regression) | Neutrophil Elastase IC50 ([1]; non-linear regression, three independent experiments) | inhibition of neutrophil elastase activity ([1]; result in words, Figure 27) | IC90 [2]
1 |  | CN(C)C(=O)COC(=O)Cc1ccc(OC(=O)c2ccc(NC(=N)N)cc2)cc1 [Camostat mesylate] | - | - | did not inhibit | 9.2 nM
2 | 74.1 nM | recombinant human alpha-1-antitrypsin (rhAAT) glycoprotein secreted from Pichia pastoris mutS strain 1B6 (from UniProt P01009 25-418) |  |  |  | 
3 | 79 nM | Prolastin (Grifols), human plasma-derived A1AT formulation (from UniProt P01009 25-418) |  |  |  | 
